The source of these data is patent US11414384B2, “P300/CBP hat inhibitors” (Constellation Pharmaceuticals, Inc., priority 2018, dated 2022).

The structures appear in SMILES notation. A value given as a limit tells only on which side of the number the result lay.

The term IC50 denotes the point on the concentration scale where inhibition reaches its midpoint.

p300 HAT domain (residues 1287-1666), sequence (Q09472 1287-1666): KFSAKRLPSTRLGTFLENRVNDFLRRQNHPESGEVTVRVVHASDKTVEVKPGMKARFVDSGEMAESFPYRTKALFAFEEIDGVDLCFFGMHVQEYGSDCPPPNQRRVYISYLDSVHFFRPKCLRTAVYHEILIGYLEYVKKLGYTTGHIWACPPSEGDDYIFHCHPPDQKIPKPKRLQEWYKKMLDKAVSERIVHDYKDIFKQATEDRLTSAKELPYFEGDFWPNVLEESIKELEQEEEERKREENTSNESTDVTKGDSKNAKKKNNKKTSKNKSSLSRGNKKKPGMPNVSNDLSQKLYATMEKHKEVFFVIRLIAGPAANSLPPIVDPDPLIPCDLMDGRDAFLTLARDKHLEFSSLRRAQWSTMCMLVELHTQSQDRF

The first assay addresses p300 HAT domain (residues 1287-1666) (Homo sapiens (Human), UniProt Q09472). In words: p300 HAT SPA assay (scintillation proximity assay, acetylation of biotinylated H3(1-21) peptide). It counts as biochemical. Conditions: P300 HAT SPA IC50, p300 HAT domain; average of at least 2 replicate titrations. The gist of the method: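 Scintillation proximity readout of acetylated biotin-H3(1-21) captured on streptavidin plates after 1.5 hr at RT; enzyme was Ni2+/anion-exchange-purified HAT domain in 20 mM Hepes pH 7.5. Inhibitor IC50s calculated from the data.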
A general note: Scintillation proximity formats need no separation of bound from free tracer.
`CCn1cc(C(=O)C(NCCc2ccc(Cl)cc2)c2ccccc2)c2ccccc21` (single isomer, unassigned) [129 Isomer 1] had an IC50 of 11.8 µM.
`COCCn1cc(C(=O)C(NCCc2ccc(Cl)cc2)c2ccccc2)c2ccccc21` (single isomer, unassigned) [127 Isomer 1] returned an IC50 greater than 60 µM.

Still in this assay, the particulars now being: p300 HAT domain; average of at least 2 replicate titrations; read-out: P300 HAT SPA IC50.
As to `Cn1cnc(-c2ccc3c(C(=O)C(NCCc4ccc(C#N)cc4)c4ccccc4)c[nH]c3c2)c1` (single isomer, unassigned) [113 Isomer 1], the IC50 came to 1.11 µM.
Still for that read-out and setting: next, `O=C(c1c[nH]c2ccccc12)C(NCCc1ccc(Cl)cc1)C1CC1` (single isomer, unassigned) [24 Isomer 2]: greater than 60 µM; `Cn1cc(-c2ccc3c(C(=O)C(NCCc4ccc(C(N)=O)cc4)c4ccccc4)c[nH]c3c2)nn1` (single isomer, unassigned) [180 Isomer 1]: 4.33 µM.
Same read-out and setting: next, `NS(=O)(=O)c1ccc(CCNC(C(=O)c2c[nH]c3cc(C(F)(F)F)ccc23)c2ccccc2)cc1` (single isomer, unassigned) [1 Isomer 2]: greater than 30 µM.
The same measure, in the same setting: next, `O=C(c1c[nH]c2ccccc12)[C@@H](NCCc1ccc(-c2nn[nH]n2)cc1)c1ccccc1` (single isomer, unassigned) [185 Isomer 1]: 1.1 µM; `O=C(c1c[nH]c2ccccc12)C(NCCc1ccc(Cl)nc1)c1ccccc1` (single isomer, unassigned) [52 Isomer 2]: 2.83 µM.
Regarding `CNC(=O)c1ccc(CCN[C@H](C(=O)c2c[nH]c3cc(-c4cnn(C)c4)ccc23)c2ccccc2)cc1` (single isomer, unassigned) [131 Isomer 1], the IC50 was greater than 30 µM.
Still for that read-out and setting: next, `CNC(=O)CCc1ccc2c(C(=O)C(NCCc3ccc(F)cc3)c3ccccc3)c[nH]c2c1` (single isomer, unassigned) [158 Isomer 2]: greater than 5 µM.
Same read-out and setting: then `O=C(c1c[nH]c2ccccc12)C(NCCc1ccc(Cl)cc1)c1ccccc1` (single isomer, unassigned) [5 Isomer 1], with 8.76 µM.
For `Cn1cc(-c2ccc3c(C(=O)C(NCCc4ccc(Cl)cc4)c4ccccc4)c[nH]c3c2)nn1` (single isomer, unassigned) [104 Isomer 2], the half-maximal inhibitory concentration (IC50) is 0.388 µM.
The same measure, in the same setting: next, `CC(CNC(C(=O)c1cnn2cc(-c3cnn(C)c3)ccc12)c1ccccc1)c1ccc(C#N)cc1` (single isomer, unassigned) [102 Isomer 3]: 0.212 µM; `Cn1cc(-c2ccc3c(C(=O)[C@@H](NCCc4ccc(N)nc4)c4ccccc4)c[nH]c3c2)cn1` (single isomer, unassigned) [187 Isomer 2]: 0.793 µM.
Same read-out and setting: next, `Cc1cccc2c(C(=O)C(NC(C)Cc3ccc(Cl)cc3Cl)c3ccccc3)c[nH]c12` (single isomer, unassigned) [68 Isomer 2]: greater than 30 µM.
For `Cn1cc(CCNC(C(=O)c2c[nH]c3ccccc23)c2ccccc2)cn1` (single isomer, unassigned) [35 Isomer 1], the IC50 was found to be 39.8 µM.
Same read-out and setting: next, `CC(CNC(C(=O)c1c[nH]c2cc(-c3cnn(C)c3)ccc12)c1ccccc1)c1ccc(Cl)cc1` (single isomer, unassigned) [91 Isomer 1]: 3.73 µM.
On the same count and under the same terms, next, `CS(=O)(=O)CCCNC(=O)c1ccc2c(C(=O)C(NCCc3ccc(C#N)cc3)c3ccccc3)c[nH]c2c1` (single isomer, unassigned) [175 Isomer 1]: 0.917 µM; `COc1cccc(CCNC(C(=O)c2c[nH]c3ccccc23)c2ccccc2)c1` (single isomer, unassigned) [7 Isomer 1]: 7.35 µM.
As for `O=C(c1c[nH]c2ccccc12)C(NCCc1ccc(F)cc1)c1ccccc1` (single isomer, unassigned) [22 Isomer 1], the IC50 is greater than 60 µM.
As for `CCNC(=O)c1ccc2c(C(=O)C(NCC(C)c3ccc(C#N)cc3)c3ccccc3)c[nH]c2c1` (single isomer, unassigned) [75 Isomer 3], the IC50 is 0.447 µM.
The same measure, in the same setting: then `COc1ccc(CCNC(C(=O)c2c[nH]c3c(C)cccc23)c2ccccc2)cc1` (single isomer, unassigned) [80 Isomer 1], with 2.48 µM; and `O=C(c1c[nH]c2ccccc12)C(NCCc1ccccc1Cl)c1ccccc1` (single isomer, unassigned) [3 Isomer 1], with greater than 60 µM.
The same measure, in the same setting: then `NC(=O)c1ccc(CCNC(C(=O)c2c[nH]c3cc(-n4ccnc4)ccc23)c2ccccc2)cc1` (single isomer, unassigned) [181 Isomer 2], with greater than 5 µM.
The same measure, in the same setting: next, `O=C(c1c[nH]c2ccccc12)C(NCCc1ccc(Cl)cc1)C1CC1` (single isomer, unassigned) [24 Isomer 1]: 52.2 µM.
As for `CCNC(=O)c1ccc2c(C(=O)C(NCCc3ccc(C#N)cc3Cl)c3ccccc3)c[nH]c2c1` (single isomer, unassigned) [71 Isomer 2], the IC50 came out at 0.0177 µM.
Take `Cc1nnc(-c2ccc3c(C(=O)C(NCCc4ccc(Cl)cc4)c4ccccc4)c[nH]c3c2)o1` (single isomer, unassigned) [107 Isomer 2]: the IC50 amounted to 3.28 µM.
On the same count and under the same terms, then `C[C@@H](NC(=O)c1ccc2c(C(=O)C(NCCc3ccc(C#N)cc3)c3ccccc3)c[nH]c2c1)C(F)(F)F` (single isomer, unassigned) [170 Isomer 1], with 0.296 µM; and `Cn1cc(-c2ccc3c(C(=O)C(NCCc4ccc(C#N)cc4Cl)c4ccccc4)c[nH]c3c2)cn1` (single isomer, unassigned) [72 Isomer 2], with 0.0424 µM.
On the same count and under the same terms, then `COCCNc1ccc(CCNC(C(=O)c2c[nH]c3ccccc23)c2ccccc2)cn1` (single isomer, unassigned) [54 Isomer 1], with greater than 30 µM.
On to `O=C(c1c[nH]c2cc(-c3ccncc3)ccc12)C(NCCc1ccc(Cl)cc1)c1ccccc1` (single isomer, unassigned) [89 Isomer 1], for which the IC50 was 27.2 µM.
For the molecule `Cc1cccc2c(C(=O)C(NC(C)Cc3ccc(Cl)cc3Cl)c3ccccc3)c[nH]c12` (single isomer, unassigned) [68 Isomer 4], the IC50 was greater than 30 µM.
Still for that read-out and setting: then `CC(CNC(C(=O)c1cnn2cc(C(=O)NC[C@@H](C)O)ccc12)c1ccccc1)c1ccc(C#N)cc1` (single isomer, unassigned) [70 Isomer 4], with 0.0218 µM; and `C[C@@H](O)CNC(=O)c1ccc2c(C(=O)C(NCCc3ccc(C#N)cc3)c3ccccc3)c[nH]c2c1` (single isomer, unassigned) [173 Isomer 2], with 0.0211 µM.
Still for that read-out and setting: next, `O=C(c1c[nH]c2cc(-n3ccnc3)ccc12)C(NCCc1ccc(F)cc1)c1ccccc1` (single isomer, unassigned) [117 Isomer 2]: greater than 30 µM.
Still for that read-out and setting: then `CN1CCC(c2ccc3c(C(=O)C(NCCc4ccc(C(N)=O)cc4)c4ccccc4)c[nH]c3c2)CC1` (single isomer, unassigned) [178 Isomer 2], with 2.07 µM; and `CCNC(=O)c1ccc2c(C(=O)C(NCC(C)c3ccc(C#N)cc3)c3ccccc3)c[nH]c2c1` (single isomer, unassigned) [75 Isomer 1], with 0.718 µM; and `CCC(CNC(C(=O)c1c[nH]c2ccccc12)c1ccccc1)c1ccc(Cl)cc1` (single isomer, unassigned) [59 Isomer 1], with greater than 30 µM.

The same assay, now with this note: read-out: P300 HAT SPA IC50; p300 HAT domain; average of at least 2 replicate titrations.
With `O=C(c1cn(CC(F)(F)F)c2ccccc12)C(NCCc1ccc(Cl)cc1)c1ccccc1` (single isomer, unassigned) [130 Isomer 2], the IC50 was greater than 60 µM.
